Experimental data: ChEMBL document CHEMBL2311510, “A new single-photon emission computed tomography (SPECT) imaging agent for serotonin transporters: [(125)I]Flip-IDAM, (2-((2-((dimethylamino)methyl)-4-iodophenyl)thio)phenyl)methanol” (Bioorg Med Chem Lett, 2013)

Key:
Assay type in all cases: ADME, organism-based
Muscle tissue [1] = assay: Biodistribution in Sprague-Dawley rat muscle assessed as compound level per organ at 11 uCi, iv measured 30 mins post compound dose; details: in vivo, 0.5 h
Spleen [2] = assay: Biodistribution in Sprague-Dawley rat spleen assessed as compound level per organ at 11 uCi, iv measured 2 mins post compound dose; details: in vivo
Kidney [3] = assay: Biodistribution in Sprague-Dawley rat kidney assessed as compound level per organ at 11 uCi, iv measured 2 mins post compound dose; details: in vivo
Lung [4] = assay: Biodistribution in Sprague-Dawley rat lung assessed as compound level per organ at 11 uCi, iv measured 2 mins post compound dose; details: in vivo
Nucleic Acid [5] = assay: Ratio of drug level in striatum to cerebellum in Sprague-Dawley rat at 11 uCi, iv measured 120 mins post compound dose; details: in vivo, 2 h
Nucleic Acid [6] = assay: Ratio of drug level in rest of brain region to cerebellum in Sprague-Dawley rat at 11 uCi, iv measured 60 mins post compound dose; details: in vivo, 1 h
Nucleic Acid [7] = assay: Ratio of drug level in cortex to cerebellum in Sprague-Dawley rat at 11 uCi, iv measured 60 mins post compound dose; details: in vivo, 1 h
Nucleic Acid [8] = assay: Ratio of drug level in striatum to cerebellum in Sprague-Dawley rat at 11 uCi, iv measured 60 mins post compound dose; details: in vivo, 1 h
Nucleic Acid [9] = assay: Ratio of drug level in hypothalamus to cerebellum in Sprague-Dawley rat at 11 uCi, iv measured 30 mins post compound dose; details: in vivo, 0.5 h
Nucleic Acid [10] = assay: Ratio of drug level in cortex to cerebellum in Sprague-Dawley rat at 11 uCi, iv measured 30 mins post compound dose; details: in vivo, 0.5 h
Nucleic Acid [11] = assay: Ratio of drug level in hippocampus to cerebellum in Sprague-Dawley rat at 11 uCi, iv measured 30 mins post compound dose; details: in vivo, 0.5 h
Nucleic Acid [12] = assay: Ratio of drug level in cortex to cerebellum in Sprague-Dawley rat at 11 uCi, iv measured 2 mins post compound dose; details: in vivo
Cortex [13] = assay: Biodistribution in Sprague-Dawley rat cortex at 11 uCi, iv measured 120 mins post compound dose; details: in vivo, 2 h
Hippocampus [14] = assay: Biodistribution in Sprague-Dawley rat hippocampus at 11 uCi, iv measured 120 mins post compound dose; details: in vivo, 2 h
Striatum [15] = assay: Biodistribution in Sprague-Dawley rat striatum at 11 uCi, iv measured 120 mins post compound dose; details: in vivo, 2 h
Cerebellum = assay: Biodistribution in Sprague-Dawley rat cerebellum at 11 uCi, iv measured 120 mins post compound dose; details: in vivo, 2 h
Brain [16] = assay: Biodistribution in Sprague-Dawley rat rest of brain at 11 uCi, iv measured 60 mins post compound dose; details: in vivo, 1 h
Hypothalamus [17] = assay: Biodistribution in Sprague-Dawley rat hypothalamus at 11 uCi, iv measured 30 mins post compound dose; details: in vivo, 0.5 h
Brain [18] = assay: Biodistribution in Sprague-Dawley rat rest of brain at 11 uCi, iv measured 30 mins post compound dose; details: in vivo, 0.5 h
Cortex [19] = assay: Biodistribution in Sprague-Dawley rat cortex at 11 uCi, iv measured 30 mins post compound dose; details: in vivo, 0.5 h
Striatum [20] = assay: Biodistribution in Sprague-Dawley rat striatum at 11 uCi, iv measured 30 mins post compound dose; details: in vivo, 0.5 h
Hypothalamus [21] = assay: Biodistribution in Sprague-Dawley rat hypothalamus at 11 uCi, iv measured 2 mins post compound dose; details: in vivo
Brain [22] = assay: Biodistribution in Sprague-Dawley rat rest of brain at 11 uCi, iv measured 2 mins post compound dose; details: in vivo
Hippocampus [23] = assay: Biodistribution in Sprague-Dawley rat hippocampus at 11 uCi, iv measured 2 mins post compound dose; details: in vivo
Striatum [24] = assay: Biodistribution in Sprague-Dawley rat striatum at 11 uCi, iv measured 2 mins post compound dose; details: in vivo
Brain [25] = assay: Biodistribution in Sprague-Dawley rat brain at 11 uCi, iv measured 120 mins post compound dose; details: in vivo, 2 h
Zone of skin [26] = assay: Biodistribution in Sprague-Dawley rat skin at 11 uCi, iv measured 120 mins post compound dose; details: in vivo, 2 h
Blood [27] = assay: Biodistribution in Sprague-Dawley rat blood at 11 uCi, iv measured 120 mins post compound dose; details: in vivo, 2 h
Zone of skin [28] = assay: Biodistribution in Sprague-Dawley rat skin at 11 uCi, iv measured 60 mins post compound dose; details: in vivo, 1 h
Pancreas [29] = assay: Biodistribution in Sprague-Dawley rat pancreas at 11 uCi, iv measured 60 mins post compound dose; details: in vivo, 1 h
Lung [30] = assay: Biodistribution in Sprague-Dawley rat lung at 11 uCi, iv measured 60 mins post compound dose; details: in vivo, 1 h
Muscle tissue [31] = assay: Biodistribution in Sprague-Dawley rat muscle at 11 uCi, iv measured 60 mins post compound dose; details: in vivo, 1 h
Heart [32] = assay: Biodistribution in Sprague-Dawley rat heart at 11 uCi, iv measured 60 mins post compound dose; details: in vivo, 1 h
Blood [33] = assay: Biodistribution in Sprague-Dawley rat blood at 11 uCi, iv measured 60 mins post compound dose; details: in vivo, 1 h
Brain [34] = assay: Biodistribution in Sprague-Dawley rat brain at 11 uCi, iv measured 30 mins post compound dose; details: in vivo, 0.5 h
Muscle tissue [35] = assay: Biodistribution in Sprague-Dawley rat muscle at 11 uCi, iv measured 30 mins post compound dose; details: in vivo, 0.5 h
Brain [36] = assay: Biodistribution in Sprague-Dawley rat brain at 11 uCi, iv measured 2 mins post compound dose; details: in vivo
Spleen [37] = assay: Biodistribution in Sprague-Dawley rat spleen at 11 uCi, iv measured 2 mins post compound dose; details: in vivo
Pancreas [38] = assay: Biodistribution in Sprague-Dawley rat pancreas at 11 uCi, iv measured 2 mins post compound dose; details: in vivo
Kidney [39] = assay: Biodistribution in Sprague-Dawley rat kidney at 11 uCi, iv measured 2 mins post compound dose; details: in vivo
Muscle tissue [40] = assay: Biodistribution in Sprague-Dawley rat muscle at 11 uCi, iv measured 2 mins post compound dose; details: in vivo
Blood [41] = assay: Biodistribution in Sprague-Dawley rat blood at 11 uCi, iv measured 2 mins post compound dose; details: in vivo
Zone of skin [42] = assay: Biodistribution in Sprague-Dawley rat skin assessed as compound level per organ at 11 uCi, iv measured 120 mins post compound dose; details: in vivo, 2 h
Kidney [43] = assay: Biodistribution in Sprague-Dawley rat kidney assessed as compound level per organ at 11 uCi, iv measured 120 mins post compound dose; details: in vivo, 2 h
Lung [44] = assay: Biodistribution in Sprague-Dawley rat lung assessed as compound level per organ at 11 uCi, iv measured 120 mins post compound dose; details: in vivo, 2 h
Blood [45] = assay: Biodistribution in Sprague-Dawley rat blood assessed as compound level per organ at 11 uCi, iv measured 120 mins post compound dose; details: in vivo, 2 h
Heart [46] = assay: Biodistribution in Sprague-Dawley rat heart assessed as compound level per organ at 11 uCi, iv measured 120 mins post compound dose; details: in vivo, 2 h
Pancreas [47] = assay: Biodistribution in Sprague-Dawley rat pancreas assessed as compound level per organ at 11 uCi, iv measured 60 mins post compound dose; details: in vivo, 1 h
Lung [48] = assay: Biodistribution in Sprague-Dawley rat lung assessed as compound level per organ at 11 uCi, iv measured 60 mins post compound dose; details: in vivo, 1 h
Zone of skin [49] = assay: Biodistribution in Sprague-Dawley rat skin assessed as compound level per organ at 11 uCi, iv measured 30 mins post compound dose; details: in vivo, 0.5 h
Spleen [50] = assay: Biodistribution in Sprague-Dawley rat spleen assessed as compound level per organ at 11 uCi, iv measured 30 mins post compound dose; details: in vivo, 0.5 h
Heart [51] = assay: Biodistribution in Sprague-Dawley rat heart assessed as compound level per organ at 11 uCi, iv measured 30 mins post compound dose; details: in vivo, 0.5 h

With `CN(C)Cc1cc([125I])ccc1Sc1ccccc1CO` the Drug uptake (Muscle tissue [1]) was 17.1 %ID, the Drug uptake (Spleen [2]) was 1.04 %ID and the Drug uptake (Kidney [3]) was 4.61 %ID. It also gave a Drug uptake (Lung [4]) of 6.52 %ID, a Ratio (Nucleic Acid [5]) of 1.89 and a Ratio (Nucleic Acid [6]) of 1.1. For the same compound, the Ratio (Nucleic Acid [7]) was 1.69, the Ratio (Nucleic Acid [8]) was 2.12 and the Ratio (Nucleic Acid [9]) was 4.01. The Ratio (Nucleic Acid [10]) was 0.82, the Ratio (Nucleic Acid [11]) was 2.67 and the Ratio (Nucleic Acid [12]) was 0.92. The Drug uptake (Cortex [13]) was 0.06 % ID/g, the Drug uptake (Hippocampus [14]) was 0.08 % ID/g and the Drug uptake (Striatum [15]) was 0.1 % ID/g. The Drug uptake (Cerebellum) was 0.05 % ID/g, the Drug uptake (Brain [16]) was 0.13 % ID/g and the Drug uptake (Hypothalamus [17]) was 1 % ID/g. For the same compound, the Drug uptake (Brain [18]) was 0.55 % ID/g, the Drug uptake (Cortex [19]) was 0.21 % ID/g and the Drug uptake (Striatum [20]) was 0.78 % ID/g. It also gave a Drug uptake (Hypothalamus [21]) of 1.54 % ID/g, a Drug uptake (Brain [22]) of 1.14 % ID/g and a Drug uptake (Hippocampus [23]) of 1.28 % ID/g. For the same compound, the Drug uptake (Striatum [24]) was 1.28 % ID/g, the Drug uptake (Brain [25]) was 0.06 % ID/g and the Drug uptake (Zone of skin [26]) was 0.13 % ID/g. For the same compound, the Drug uptake (Blood [27]) was 0.19 % ID/g, the Drug uptake (Zone of skin [28]) was 0.2 % ID/g and the Drug uptake (Pancreas [29]) was 0.28 % ID/g. For the same compound, the Drug uptake (Lung [30]) was 0.42 % ID/g, the Drug uptake (Muscle tissue [31]) was 0.13 % ID/g and the Drug uptake (Heart [32]) was 0.17 % ID/g. It also gave a Drug uptake (Blood [33]) of 0.22 % ID/g, a Drug uptake (Brain [34]) of 0.53 % ID/g and a Drug uptake (Muscle tissue [35]) of 0.21 % ID/g. For the same compound, the Drug uptake (Brain [36]) was 1.21 % ID/g, the Drug uptake (Spleen [37]) was 1.61 % ID/g and the Drug uptake (Pancreas [38]) was 1.52 % ID/g. The Drug uptake (Kidney [39]) was 2.6 % ID/g, the Drug uptake (Muscle tissue [40]) was 0.26 % ID/g and the Drug uptake (Blood [41]) was 0.44 % ID/g. It also gave a Drug uptake (Zone of skin [42]) of 4.07 %ID, a Drug uptake (Kidney [43]) of 1.06 %ID and a Drug uptake (Lung [44]) of 0.41 %ID. It also gave a Drug uptake (Blood [45]) of 2.71 %ID, a Drug uptake (Heart [46]) of 0.12 %ID and a Drug uptake (Pancreas [47]) of 0.1 %ID. The Drug uptake (Lung [48]) was 0.73 %ID, the Drug uptake (Zone of skin [49]) was 9.38 %ID and the Drug uptake (Spleen [50]) was 0.23 %ID. The Drug uptake (Heart [51]) was 0.28 %ID.
